Measured values from the NIST ThermoML archive (doi:10.1021/je1006482).
± gives the expanded uncertainty stated by the source.

Legend:
[1] = 101.33 kPa, Liquid
[2] = excess molar enthalpy (molar enthalpy of mixing); xn = mol fraction of the nth substance listed; conditions: 101.3 kPa, Liquid, Flow calorimetry

COC(=O)CC(C)=O [methyl 3-oxobutanoate]
[1]
Conditions	mass density [kg/m3]
288.2 K	1081.93 ± 0.4
298.2 K	1071.18 ± 0.38
313.2 K	1055.01 ± 0.34
328.2 K	1038.78 ± 0.31
338.2 K	1027.89 ± 0.29
348.2 K	1016.95 ± 0.26

COC(=O)CC(C)=O [methyl 3-oxobutanoate] + CC(C)O
excess molar enthalpy [kJ/mol], [2]
Conditions	288.2 K	298.2 K	313.2 K	328.2 K
x1 = 0.1002	0.956 ± 0.021	1.05 ± 0.023	1.14 ± 0.025	1.19 ± 0.027
x1 = 0.2005	1.46 ± 0.032	1.65 ± 0.036	1.85 ± 0.04	1.96 ± 0.042
x1 = 0.2998	1.77 ± 0.038	2.01 ± 0.043	2.27 ± 0.049	2.41 ± 0.052
x1 = 0.35	1.87 ± 0.04	2.11 ± 0.045	2.38 ± 0.051	2.53 ± 0.054
x1 = 0.4004	1.93 ± 0.042	2.2 ± 0.047	2.47 ± 0.053	2.65 ± 0.057
x1 = 0.4493	1.98 ± 0.043	2.24 ± 0.048	2.51 ± 0.054	2.67 ± 0.057
x1 = 0.4998	1.99 ± 0.043	2.24 ± 0.048	2.5 ± 0.053	2.65 ± 0.057
x1 = 0.5504	1.98 ± 0.043	2.22 ± 0.048	2.46 ± 0.053	2.59 ± 0.055
x1 = 0.6008	1.94 ± 0.042	2.17 ± 0.046	2.37 ± 0.051	2.48 ± 0.053
x1 = 0.6492	1.86 ± 0.04	2.07 ± 0.044	2.24 ± 0.048	2.34 ± 0.05
x1 = 0.6991	1.75 ± 0.038	1.93 ± 0.041	2.06 ± 0.044	2.13 ± 0.046
x1 = 0.7997	1.41 ± 0.031	1.51 ± 0.033	1.57 ± 0.034	1.6 ± 0.035
x1 = 0.9002	0.81 ± 0.018	0.86 ± 0.02	0.859 ± 0.02	0.881 ± 0.02

COC(=O)CC(C)=O [methyl 3-oxobutanoate] + CCCO
excess molar enthalpy [kJ/mol], [2]
Conditions	288.2 K	298.2 K	313.2 K	328.2 K
x1 = 0.0994	0.824 ± 0.018	0.918 ± 0.021	1.02 ± 0.023	1.1 ± 0.025
x1 = 0.1995	1.3 ± 0.029	1.47 ± 0.032	1.67 ± 0.036	1.81 ± 0.039
x1 = 0.2993	1.59 ± 0.034	1.8 ± 0.039	2.07 ± 0.044	2.25 ± 0.048
x1 = 0.3492	1.69 ± 0.036	1.92 ± 0.041	2.21 ± 0.047	2.38 ± 0.051
x1 = 0.3995	1.76 ± 0.038	2 ± 0.043	2.3 ± 0.049	2.47 ± 0.053
x1 = 0.45	1.81 ± 0.039	2.04 ± 0.044	2.34 ± 0.05	2.51 ± 0.053
x1 = 0.5008	1.82 ± 0.039	2.05 ± 0.044	2.35 ± 0.05	2.52 ± 0.054
x1 = 0.5498	1.81 ± 0.039	2.04 ± 0.044	2.31 ± 0.049	2.45 ± 0.052
x1 = 0.6007	1.78 ± 0.038	1.99 ± 0.043	2.23 ± 0.048	2.36 ± 0.05
x1 = 0.6495	1.72 ± 0.037	1.91 ± 0.041	2.12 ± 0.045	2.23 ± 0.048
x1 = 0.7	1.62 ± 0.035	1.79 ± 0.038	1.97 ± 0.042	2.04 ± 0.044
x1 = 0.8001	1.31 ± 0.029	1.41 ± 0.031	1.51 ± 0.033	1.55 ± 0.034
x1 = 0.9003	0.778 ± 0.018	0.803 ± 0.018	0.849 ± 0.019	0.861 ± 0.02
